In patent US9844554B2 (Neurogastrx, Inc., priority 2014, dated 2017):

Assays:
[1] = target: α1; assay: Radioligand binding affinity, α1
[2] = target: 5HT2; assay: Radioligand binding affinity, 5HT2
[3] = target: hERG channel (Homo sapiens, UniProt Q12809); assay: hERG voltage clamp assay in hERG-expressing cultured cells; assay type: cell-based; settings: approximate, from voltage clamp data, read-out: concentration necessary to inhibit 50% of the tail currents mediated by hERG channels
[4] = system: gastric motility in canines; assay: Antral manometry (gastric motility) in canines; assay type: in vivo, canine (hound dogs)
Method: Two healthy female hound dogs (24-28 kg) were involved in this study. Animals were fed an ad libitum chow diet (LabDiet®). After an overnight fast, the dogs were anesthetized with Pentothal (sodium thiopental, 11 mg/kg IV; Abbott Laboratories, North Chicago, Ill.) and maintained on 2-4% isoflurane (Abbott Laboratories) in oxygen (1 L/min) carrier gases delivered from a ventilator after endotracheal intubation. A cannula was placed in the jejunum 20 cm distal to the pylorus for the assessment of antral motility. Dogs were allowed to recover in their individual cages for 2 weeks. All experiments were performed after the dogs were completely recovered from the surgical procedure. The study was performed according to the National Institutes of Health Guidelines on the use of laboratory animals and approved by the Animal Care and Use Committee of the University of Texas Medical Branch at Galveston, Tex. To investigate the effect of the drugs on antral manometry, the study of each drug dose was done on three randomized sessions on separate days following the consumption of one can of solid dog food: 1) a Control session: In which animals received the vehicle only; 2) Dose I session: in which the lower dose of the drug was used; and 3) Dose II session: in which the higher dose of the drug was used (please refer to table for drug doses). Drug administration was performed according to Table 4, below. Antral manometry was performed as follows. Following an overnight fast, an intraluminal water-perfused manometry catheter was inserted into the antrum through the jejunal cannula. Antral manometry recording was initiated after the consumption of one can of solid food and continued for 3 hours. The catheter contained 3 manometric sensors at a 1 cm interval. Dogs were given 10 minutes of accommodation, prior to the start of the recording. For data analysis, motility index (MI), defined as the integrated area (area under curve—AUC) between baseline and contractions per hour, was calculated. For statistical analysis, the Student's t-test was used for assessment of individual differences between groups (high dose, low dose of each drug) compared to control—Microsoft®Excel 2002). All values are expressed as mean±SEM. Significance was considered when p value was ≦0.05.

[5] = system: gastric emptying in Sprague-Dawley rats; assay: Solid gastric emptying in rodents; assay type: in vivo, rat
Method: The animals received a standard laboratory rat chow and tap water ad libitum. The rats were around 400 g at 14 weeks age when used in gastric emptying study. Drugs: S-Carbidopa was purchased from Sigma (#: C1335). Stock solution of S-Carbidopa was prepared at 5 mg/ml using DMSO as solvent. 80 μl stock solution was further diluted into 1 ml distilled water to make 0.4 mg/ml. The effect of S-Carbidopa (1 mg/kg) on solid gastric emptying was studied. Procedures: Male SD rats were involved in this study. Rats were fasted in cages with metal wired mesh for 24 hours with free access to water; S-carbidopa (1 mg/kg) was administered to the rats by oral gavage. Control rats were not administered S-carbidopa. 15 minutes following administration, rats were given access to 2 g of rat chow pellets for ten minutes. All rats completely ingested the chow within the 10 minute time frame. Rats were sacrificed by sodium pentobarbital (100 mg/kg) overdose 90 min after feeding. The stomach was surgically isolated and removed. Gastric contents were recovered from the stomach, air dried for 48 hours and then weighed. Solid gastric emptying was calculated according to the following formula: Gastric emptying (%)=[1−(dried gastric content in g)/2 g]×100. All values are expressed as mean±SEM.

[6] = system: cardiac action potentials in dogs; assay: Canine cardiac action potentials by electrocardiography and telemetry; assay type: in vivo, dog; settings: for QTc intervals: oral gavage, 1-6 hours post-dose, vs vehicle
Source text: Surgical Implantation of the Telemetry Device and ECG Leads. Anesthesia is introduced to dogs. Balanced gaseous anesthesia is used throughout the surgical procedure. Once anesthetized, animals are shaved and surgically scrubbed, encompassing surgical sites of the right inguinal area, chest and right lateral abdomen. Throughout the surgical procedure, animals are monitored for continuous assessment of vital signs. An incision is made along the right medial thigh and the femoral artery exposed by blunt dissection. Another incision is made in the lateral lumbar area cranial to the iliac crest for a tunneling needle to be passed subcutaneously from the incision on the medial thigh to the lumbar incision. A blood pressure catheter is passed through the needle from the lumbar incision and the needle removed. The femoral artery is ligated distally and incised to insert a catheter that is advanced until the tip resided in the femoral artery/abdominal aorta. The catheter is then secured by ligation. The incision in the lumbar area is enlarged and a subcutaneous pocket created in the left dorsal lumbar area to hold the transmitter body. The transmitter (e.g., Data Sciences International, St Paul, Minn., USA) is inserted into the subcutaneous pocket and secured body. Electrocardiography (ECG) leads are positioned. The incision is closed. Postoperative recovery lasts, e.g., about 2 weeks during which supplemental analgesics/antibiotics are administered as needed. Once the postoperative recovery period is complete, the animal is examined for study acceptability by the staff veterinarian and the implanted transmitter signal verified.
Study Design. […] ECGs, heart rate and arterial blood pressure data are recorded 1 hour prior to and then continuously for at least 6 hours following compound and/or vehicle administration. A blood sample for determination of compound plasma concentrations is collected from all subjects at approximately 6 h post-dose.
ECG Analysis. An ECG waveform morphology assessment for the entire monitoring period is completed for each dog by a safety pharmacologist or veterinarian cardiologist. Standard ECG intervals (PR, RR, QRS and QT) are automatically measured by the data acquisition system and reported as, e.g., 10 min averages. The signals are collected with Data Sciences International Systems hardware. PR and QT manual overreads are conducted as appropriate. The manual measurements are completed from 50 mm s^−1 tracings at 30 min intervals. A mean of the three waveforms per time point are reported. QT intervals are corrected for heart rate (QTc) values by, e.g., using the formula by Funck-Bretano and Jaillon (1993).
Statistical Analysis. […] Dose-level averages (and accompanying standard deviation (s.d.) of these baseline-adjusted 10 min averages are calculated across study animals. ANOVA (e.g., repeated measures ANOVA) are applied to these baseline-adjusted averages. Pairwise t-tests are applied within the ANOVA to identify the presence of significant differences of the dose levels relative to vehicle. These t-tests are performed at a 0.05/2=0.025 significance level, so that the overall error rate across the comparisons in a given interval are not higher than 0.05. ECG interval data (reported at 30 min intervals) are analyzed using, e.g., repeated-measures ANOVA techniques similar to the systemic blood pressure and heart rate data described above.

[7] = target: D3 (Homo sapiens, UniProt P35462); assay: Radioligand binding affinity, D3
Sequence of D3 (P35462 whole entry): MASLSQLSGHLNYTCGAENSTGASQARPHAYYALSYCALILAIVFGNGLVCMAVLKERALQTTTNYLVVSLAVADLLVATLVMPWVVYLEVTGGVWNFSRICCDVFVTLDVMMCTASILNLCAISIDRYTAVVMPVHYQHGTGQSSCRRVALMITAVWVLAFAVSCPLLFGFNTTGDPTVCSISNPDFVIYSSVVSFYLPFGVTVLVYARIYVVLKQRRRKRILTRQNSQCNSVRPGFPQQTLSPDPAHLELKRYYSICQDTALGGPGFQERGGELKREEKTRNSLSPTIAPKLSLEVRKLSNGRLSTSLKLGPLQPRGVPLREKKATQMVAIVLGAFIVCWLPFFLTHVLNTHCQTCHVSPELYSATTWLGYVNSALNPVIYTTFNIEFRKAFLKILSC

Sequence of hERG channel (Q12809 whole entry): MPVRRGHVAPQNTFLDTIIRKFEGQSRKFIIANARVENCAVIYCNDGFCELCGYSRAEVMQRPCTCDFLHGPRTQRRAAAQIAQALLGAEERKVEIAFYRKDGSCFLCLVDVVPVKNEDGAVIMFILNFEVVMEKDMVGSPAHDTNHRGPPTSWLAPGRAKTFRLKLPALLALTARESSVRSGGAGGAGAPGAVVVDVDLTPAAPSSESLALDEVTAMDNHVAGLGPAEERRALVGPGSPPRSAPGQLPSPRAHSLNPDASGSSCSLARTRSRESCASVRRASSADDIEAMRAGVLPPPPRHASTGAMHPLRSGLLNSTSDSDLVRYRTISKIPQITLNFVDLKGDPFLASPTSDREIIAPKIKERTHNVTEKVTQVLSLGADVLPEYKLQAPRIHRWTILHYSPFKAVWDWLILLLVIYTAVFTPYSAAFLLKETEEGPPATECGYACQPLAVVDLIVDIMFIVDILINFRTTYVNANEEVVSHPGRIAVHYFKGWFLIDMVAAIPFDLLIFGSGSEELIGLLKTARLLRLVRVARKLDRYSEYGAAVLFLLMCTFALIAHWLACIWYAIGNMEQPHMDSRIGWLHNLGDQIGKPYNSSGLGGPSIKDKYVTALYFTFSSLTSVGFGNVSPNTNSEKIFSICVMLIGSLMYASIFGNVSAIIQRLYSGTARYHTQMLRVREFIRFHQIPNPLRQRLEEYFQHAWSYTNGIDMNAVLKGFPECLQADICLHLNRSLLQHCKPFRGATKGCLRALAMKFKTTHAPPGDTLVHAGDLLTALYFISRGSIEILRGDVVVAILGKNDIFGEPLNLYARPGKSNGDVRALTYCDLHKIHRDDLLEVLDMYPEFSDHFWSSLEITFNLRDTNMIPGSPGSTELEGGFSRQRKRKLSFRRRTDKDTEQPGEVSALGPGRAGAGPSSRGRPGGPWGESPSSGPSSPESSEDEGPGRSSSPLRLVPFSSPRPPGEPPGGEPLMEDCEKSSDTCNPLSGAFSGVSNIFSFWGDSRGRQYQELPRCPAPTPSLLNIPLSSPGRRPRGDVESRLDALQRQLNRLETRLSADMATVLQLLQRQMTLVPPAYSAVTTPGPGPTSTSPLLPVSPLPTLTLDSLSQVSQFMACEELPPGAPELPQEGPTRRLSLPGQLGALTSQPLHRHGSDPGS

| SMILES | Ki [1] [nM] | Ki [2] [nM] | motor dysfunction [4] | IC50 [3] [nM] | QTc intervals [6] | also measured |
| --- | --- | --- | --- | --- | --- | --- |
| CS(=O)(=O)c1ccc2c(c1)N(CCCN1CCC(C(N)=O)CC1)c1ccccc1S2 [Metopimazine, 1-[3-[2-(methylsulfonyl)-10H-phenothiazin-10-yl]propyl]-piperidine-4-carboxamide] | 1.9 | 15 | no motor dysfunction was observed | ~3000 | no significant increases in QTc intervals | overall increase in gastric emptying as compared to vehicle control ([5]; rats, pooling the 3 mg/kg and 10 mg/kg doses): about 20% |
| CN(CCOc1ccc(NS(C)(=O)=O)cc1)CCc1ccc(NS(C)(=O)=O)cc1 [dofetilide] |  |  |  |  | QTc intervals are increased | incidence of ECG abnormalities ([6]; 0.3 mg/kg oral gavage): increases the incidence of premature ventricular contractions, T-wave abnormalities, and right bundle branch block |
| Cl.NCCc1ccc(O)c(O)c1 [dopamine hydrochloride, Dopamine hydrochloride] |  |  |  |  |  | motility index (MI), antral manometry ([4]; 50 mg/canine IV immediately before meal, all channels, p=0.06): decreased MI |

Continued, in another order:

| Ki [1] [nM] | Ki [2] [nM] | motor dysfunction [4] | SMILES | IC50 [3] [nM] | QTc intervals [6] | also measured |
| --- | --- | --- | --- | --- | --- | --- |
| 210 | 370 |  | CS(=O)(=O)c1ccc2c(c1)N(CCCN1CCC(C(=O)O)CC1)c1ccccc1S2 [Metopimazine-Acid, metopimazine acid] | > 10000 | no significant increases in QTc intervals | Ki [7]: > 100 nM |
|  |  | no motor dysfunction was observed | C[C@@](Cc1ccc(O)c(O)c1)(NN)C(=O)O [S-Carbidopa, (25)-3-(3,4-dihydroxyphenyl)-2-hydrazino-2-methylpropanoic acid] |  | no significant increases in QTc intervals | motility index (MI), antral manometry ([4]; 1 mg/kg IV 15 min prior to meal, all three channels, p=0.05): robustly increased MI; motor dysfunction ([5]; rats administered carbidopa): no motor dysfunction was observed; solid gastric emptying compared to control rats ([5]; rats, initial results): improves solid gastric emptying |
